# Assay results published in patent publication US11725036B2, “Modified lipidated relaxin B chain peptides and their therapeutic use” (Sanofi, priority 2018, dated 2023).
# Starred links: 1 amine or outer side, 2 acyl side, 3 side chain; linkers in the order of their positions; H or OH if unused. Non-standard residues stand in square brackets, D forms with d. Residues, ends and D or L forms follow the SMILES beside them. Groups on a side chain read outwards from the residue. *: point of attachment. X12 = CCCCCCCCCCCCCCCCCC(=O)N[C@@H](CCC(=O)N[C@@H](CCC(=O)N[C@@H](CCC(=O)N[C@@H](CCC(=O)NCCCOCCOCCOCCCNC(=O)CCC(=O)NCCCOCCOCCOCCCNC(=O)CCC(=O)NCCCOCCOCCOCCCNC(=O)CCC(=O)NCCCOCCOCCOCCCN*)C(=O)O)C(=O)O)C(=O)O)C(=O)O; X11 = CCCCCCCCCCCCCCCCCC(=O)N[C@@H](CCC(=O)N[C@@H](CCC(=O)N[C@@H](CCC(=O)N[C@@H](CCC(=O)NCCCOCCOCCOCCCNC(=O)CCC(=O)NCCCOCCOCCOCCCNC(=O)CCC(=O)NCCCOCCOCCOCCCN*)C(=O)O)C(=O)O)C(=O)O)C(=O)O; X1 = CCCCCCCCCCCCCCCC(=O)N[C@@H](CCC(=O)N[C@@H](CCC(=O)N[C@@H](CCC(=O)NCCCOCCOCCOCCCNC(=O)CCC(=O)NCCCOCCOCCOCCCNC(=O)CCC(=O)NCCCOCCOCCOCCCN*)C(=O)O)C(=O)O)C(=O)O; Trp(5-Cl) = N[C@@H](Cc1c[nH]c2ccc(Cl)cc12)C(=O)O; Suc = O=C(CCC(=O)[*:2])[*:1]; αMeK = C[C@](N)(CCCCN)C(=O)O; hLys = NCCCCC[C@H](N)C(=O)O; Aib = CC(C)(N)C(=O)O
# Biological target: T1, RXFP1 (Homo sapiens, UniProt Q9HBX9)
# T1 construct: OVCAR5 cells expressing endogenous RXFP1; endogenous in cells; host or cells: OVCAR5
# T1 sequence (Q9HBX9 1-757): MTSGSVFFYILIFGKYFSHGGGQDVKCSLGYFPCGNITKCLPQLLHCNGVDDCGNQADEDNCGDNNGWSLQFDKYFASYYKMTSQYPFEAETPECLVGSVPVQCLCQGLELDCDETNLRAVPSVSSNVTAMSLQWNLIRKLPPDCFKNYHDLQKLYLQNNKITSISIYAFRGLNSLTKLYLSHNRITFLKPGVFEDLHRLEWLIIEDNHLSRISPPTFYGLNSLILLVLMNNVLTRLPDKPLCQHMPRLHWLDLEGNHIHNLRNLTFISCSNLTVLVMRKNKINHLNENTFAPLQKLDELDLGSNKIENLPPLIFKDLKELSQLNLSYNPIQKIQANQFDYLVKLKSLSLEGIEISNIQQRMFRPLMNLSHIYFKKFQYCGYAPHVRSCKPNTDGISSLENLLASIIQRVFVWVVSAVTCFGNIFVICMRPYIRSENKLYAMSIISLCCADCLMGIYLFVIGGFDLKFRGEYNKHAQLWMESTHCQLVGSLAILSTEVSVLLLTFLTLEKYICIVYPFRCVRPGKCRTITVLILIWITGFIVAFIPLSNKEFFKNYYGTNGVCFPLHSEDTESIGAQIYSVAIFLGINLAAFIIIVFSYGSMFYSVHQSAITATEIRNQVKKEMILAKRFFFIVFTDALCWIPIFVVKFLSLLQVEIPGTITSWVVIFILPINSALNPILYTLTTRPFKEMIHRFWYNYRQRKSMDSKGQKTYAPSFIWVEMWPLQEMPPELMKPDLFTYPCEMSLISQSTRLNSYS
# Assay: OVCAR5 cAMP assay (HTRF)
# Assay type: cell-based
# Settings: for EC50: OVCAR 5 cells expressing endogenous RXFP1, cAMP readout; for Emax: OVCAR 5 cells, maximal cAMP relative to H2-relaxin
# Procedure, shortened: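 Endogenous RXFP1 in OVCAR5 cells, pretreated 40 min at 37° C with 1 mM IBMX, then exposed to increasing peptide concentrations in serum-free medium for 30 min at 37° C. cAMP read by HTRF; EC50 by variable-slope sigmoidal fit, Emax as % of H2-relaxin maximal cAMP in same run.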
SMILES,EC50,Emax
CCCCCCCCCCCCCCCC(=O)N[C@@H](CCC(=O)N[C@@H](CCC(=O)N[C@@H](CCC(=O)NCCCOCCOCCOCCCNC(=O)CCC(=O)NCCCOCCOCCOCCCNC(=O)CCC(=O)NCCCOCCOCCOCCCNC(=O)CCC(=O)NCCCC[C@H](NC(=O)CNC(=O)[C@H](CCC(=O)O)NC(=O)C(C)(C)NC(=O)C(C)(C)NC(=O)[C@@H](NC(=O)[C@H](CCCCNC(C)=O)NC(=O)[C@H](C)NC(=O)[C@H](CCCNC(=N)N)NC(=O)[C@@H](NC(=O)[C@H](Cc1ccccc1)NC(=O)[C@H](CCC(=O)O)NC(=O)[C@H](CCCNC(=N)N)NC(=O)CNC(=O)[C@H](CCC(=O)O)NC(=O)[C@H](CC(C)C)NC(C)=O)C(C)C)[C@@H](C)CC)C(=O)N[C@@H](CO)C(=O)N[C@H](C(=O)N[C@@H](Cc1c[nH]c2ccccc12)C(=O)N[C@@H](CO)C(=O)NC(C)(C)C(=O)N[C@@H](CCCNC(=N)N)C(=O)N[C@@H](CCCNC(=N)N)C(=O)N[C@@H](CCCCNC(C)=O)C(N)=O)[C@@H](C)O)C(=O)O)C(=O)O)C(=O)O [compound 39] (Ac-LEGREFVRAK(Ac)I[Aib][Aib]EGK([Suc-X1])STWS[Aib]RRK(Ac)-NH2),8.7 nM,93%
CCCCCCCCCCCCCCCCCC(=O)N[C@@H](CCC(=O)N[C@@H](CCC(=O)N[C@@H](CCC(=O)N[C@@H](CCC(=O)NCCCOCCOCCOCCCNC(=O)CCC(=O)NCCCOCCOCCOCCCNC(=O)CCC(=O)NCCCOCCOCCOCCCNC(=O)CCC(=O)NCCCOCCOCCOCCCNC(=O)CCC(=O)NCCCC[C@H](NC(=O)CNC(=O)[C@H](CCC(=O)O)NC(=O)C(C)(C)NC(=O)C(C)(C)NC(=O)[C@@H](NC(=O)[C@H](CCCCNC(C)=O)NC(=O)[C@H](C)NC(=O)[C@H](CCCNC(=N)N)NC(=O)[C@@H](NC(=O)[C@H](CCCCN)NC(=O)[C@H](CCC(=O)O)NC(=O)[C@H](CCCNC(=N)N)NC(=O)CNC(=O)[C@H](CCC(=O)O)NC(=O)[C@H](CC(C)C)NC(C)=O)C(C)C)[C@@H](C)CC)C(=O)N[C@@H](CO)C(=O)N[C@H](C(=O)N[C@@H](Cc1c[nH]c2ccccc12)C(=O)N[C@@H](CO)C(=O)NC(C)(C)C(=O)N[C@@H](CCCNC(=N)N)C(=O)N[C@@H](CCCCN)C(=O)N[C@@H](CCCCNC(C)=O)C(N)=O)[C@@H](C)O)C(=O)O)C(=O)O)C(=O)O)C(=O)O [compound 59] (Ac-LEGREKVRAK(Ac)I[Aib][Aib]EGK([Suc-X12])STWS[Aib]RKK(Ac)-NH2),–,99%
CCCCCCCCCCCCCCCC(=O)N[C@@H](CCC(=O)N[C@@H](CCC(=O)N[C@@H](CCC(=O)NCCCOCCOCCOCCCNC(=O)CCC(=O)NCCCOCCOCCOCCCNC(=O)CCC(=O)NCCCOCCOCCOCCCNC(=O)CCC(=O)NCCCC[C@H](NC(=O)CNC(=O)[C@H](CCC(=O)O)NC(=O)C(C)(C)NC(=O)C(C)(C)NC(=O)[C@@H](NC(=O)[C@H](CCCCNC(C)=O)NC(=O)[C@H](C)NC(=O)[C@H](CCCNC(=N)N)NC(=O)[C@@H](NC(=O)[C@H](CCCNC(=N)N)NC(=O)[C@H](CCC(=O)O)NC(=O)[C@H](CCCNC(=N)N)NC(=O)CNC(=O)[C@H](CCC(=O)O)NC(=O)[C@H](CC(C)C)NC(C)=O)C(C)C)[C@@H](C)CC)C(=O)N[C@@H](CO)C(=O)N[C@H](C(=O)N[C@@H](Cc1c[nH]c2ccc(Cl)cc12)C(=O)N[C@@H](CO)C(=O)NC(C)(C)C(=O)N[C@@H](CCCNC(=N)N)C(=O)N[C@@H](CCCNC(=N)N)C(=O)N[C@@H](CCCCNC(C)=O)C(N)=O)[C@@H](C)O)C(=O)O)C(=O)O)C(=O)O [compound 80] (Ac-LEGRERVRAK(Ac)I[Aib][Aib]EGK([Suc-X1])ST[Trp(5-Cl)]S[Aib]RRK(Ac)-NH2),0.63 nM,93%
CCCCCCCCCCCCCCCC(=O)N[C@@H](CCC(=O)N[C@@H](CCC(=O)N[C@@H](CCC(=O)NCCCOCCOCCOCCCNC(=O)CCC(=O)NCCCOCCOCCOCCCNC(=O)CCC(=O)NCCCOCCOCCOCCCNC(=O)CCC(=O)NCCCC[C@H](NC(=O)CNC(=O)[C@H](CCC(=O)O)NC(=O)C(C)(C)NC(=O)C(C)(C)NC(=O)[C@@H](NC(=O)[C@H](CCCCNC(C)=O)NC(=O)[C@H](C)NC(=O)[C@H](CCCNC(=N)N)NC(=O)[C@@H](NC(=O)[C@H](CCCCN)NC(=O)[C@H](CCC(=O)O)NC(=O)[C@H](CCCNC(=N)N)NC(=O)CNC(=O)[C@H](CCC(=O)O)NC(=O)[C@H](CC(C)C)NC(C)=O)C(C)C)[C@@H](C)CC)C(=O)N[C@@H](CO)C(=O)N[C@H](C(=O)N[C@@H](Cc1ccccc1)C(=O)N[C@H](C(=O)N[C@@H](CCCNC(=N)N)C(=O)N[C@@H](CCCNC(=N)N)C(=O)N[C@@H](C)C(=O)N[C@@H](CCCCNC(C)=O)C(N)=O)[C@@H](C)O)[C@@H](C)O)C(=O)O)C(=O)O)C(=O)O [compound 93] (Ac-LEGREKVRAK(Ac)I[Aib][Aib]EGK([Suc-X1])STFTRRAK(Ac)-NH2),0.77 nM,86%

# Other lines, results leading:
EC50,Emax,SMILES
0.44 nM,98%,CCCCCCCCCCCCCCCC(=O)N[C@@H](CCC(=O)N[C@@H](CCC(=O)N[C@@H](CCC(=O)NCCCOCCOCCOCCCNC(=O)CCC(=O)NCCCOCCOCCOCCCNC(=O)CCC(=O)NCCCOCCOCCOCCCNC(=O)CCC(=O)NCCCC[C@H](NC(=O)CNC(=O)[C@H](CCC(=O)O)NC(=O)C(C)(C)NC(=O)C(C)(C)NC(=O)[C@@H](NC(=O)[C@H](CCCCNC(C)=O)NC(=O)[C@H](C)NC(=O)[C@H](CCCNC(=N)N)NC(=O)[C@@H](NC(=O)[C@H](CCCCN)NC(=O)[C@H](CCC(=O)O)NC(=O)[C@H](CCCNC(=N)N)NC(=O)CNC(=O)[C@H](CCC(=O)O)NC(=O)[C@H](CC(C)C)NC(C)=O)C(C)C)[C@@H](C)CC)C(=O)N[C@@H](CO)C(=O)N[C@H](C(=O)N[C@@H](Cc1c[nH]c2ccccc12)C(=O)N[C@@H](CO)C(=O)N[C@@H](CCCCCN)C(=O)N[C@@H](CCCNC(=N)N)C(=O)N[C@@H](C)C(=O)N[C@@H](CCCCNC(C)=O)C(N)=O)[C@@H](C)O)C(=O)O)C(=O)O)C(=O)O [compound 57] (Ac-LEGREKVRAK(Ac)I[Aib][Aib]EGK([Suc-X1])STWS[hLys]RAK(Ac)-NH2)
0.14 nM,97%,CCCCCCCCCCCCCCCC(=O)N[C@@H](CCC(=O)N[C@@H](CCC(=O)N[C@@H](CCC(=O)NCCCOCCOCCOCCCNC(=O)CCC(=O)NCCCOCCOCCOCCCNC(=O)CCC(=O)NCCCOCCOCCOCCCNC(=O)CCC(=O)NCCCC[C@H](NC(=O)CNC(=O)[C@H](CCC(=O)O)NC(=O)C(C)(C)NC(=O)[C@H](C)NC(=O)[C@@H](NC(=O)[C@H](CCCCNC(C)=O)NC(=O)[C@H](C)NC(=O)[C@H](CCCNC(=N)N)NC(=O)[C@@H](NC(=O)[C@H](CCCCN)NC(=O)[C@H](CCC(=O)O)NC(=O)[C@H](CCCNC(=N)N)NC(=O)CNC(=O)[C@H](CCC(=O)O)NC(=O)[C@H](CC(C)C)NC(C)=O)C(C)C)[C@@H](C)CC)C(=O)N[C@@H](CO)C(=O)N[C@H](C(=O)N[C@@H](Cc1ccccc1)C(=O)N[C@@H](CO)C(=O)N[C@@](C)(CCCCN)C(=O)N[C@@H](CCCNC(=N)N)C(=O)N[C@@H](C)C(=O)N[C@@H](CCCCNC(C)=O)C(N)=O)[C@@H](C)O)C(=O)O)C(=O)O)C(=O)O [compound 90] (Ac-LEGREKVRAK(Ac)IA[Aib]EGK([Suc-X1])STFS[αMeK]RAK(Ac)-NH2)
0.1 nM,98%,CCCCCCCCCCCCCCCCCC(=O)N[C@@H](CCC(=O)N[C@@H](CCC(=O)N[C@@H](CCC(=O)N[C@@H](CCC(=O)NCCCOCCOCCOCCCNC(=O)CCC(=O)NCCCOCCOCCOCCCNC(=O)CCC(=O)NCCCOCCOCCOCCCNC(=O)CCC(=O)NCCCC[C@H](NC(=O)CNC(=O)[C@H](CCC(=O)O)NC(=O)C(C)(C)NC(=O)C(C)(C)NC(=O)[C@@H](NC(=O)[C@H](CCCCNC(C)=O)NC(=O)[C@H](C)NC(=O)[C@H](CCCNC(=N)N)NC(=O)[C@@H](NC(=O)[C@H](CCCCN)NC(=O)[C@H](CCC(=O)O)NC(=O)[C@H](CCCNC(=N)N)NC(=O)CNC(=O)[C@H](CCC(=O)O)NC(=O)[C@H](CC(C)C)NC(C)=O)C(C)C)[C@@H](C)CC)C(=O)N[C@@H](CO)C(=O)N[C@H](C(=O)N[C@@H](Cc1c[nH]c2ccccc12)C(=O)N[C@@H](CO)C(=O)NC(C)(C)C(=O)N[C@@H](CCCNC(=N)N)C(=O)N[C@@H](CCCCN)C(=O)N[C@@H](CCCCNC(C)=O)C(N)=O)[C@@H](C)O)C(=O)O)C(=O)O)C(=O)O)C(=O)O [compound 51] (Ac-LEGREKVRAK(Ac)I[Aib][Aib]EGK([Suc-X11])STWS[Aib]RKK(Ac)-NH2)
